Assay results as given in ChEMBL document CHEMBL1141379, “Selective inhibitory activity against MAO and molecular modeling studies of 2-thiazolylhydrazone derivatives” (J Med Chem, 2007).
pKi: −log10 of the molar value.

Molecular target: T1, Amine oxidase [flavin-containing] A (Bos taurus, UniProt P21398)
T1 sequence (P21398 whole entry): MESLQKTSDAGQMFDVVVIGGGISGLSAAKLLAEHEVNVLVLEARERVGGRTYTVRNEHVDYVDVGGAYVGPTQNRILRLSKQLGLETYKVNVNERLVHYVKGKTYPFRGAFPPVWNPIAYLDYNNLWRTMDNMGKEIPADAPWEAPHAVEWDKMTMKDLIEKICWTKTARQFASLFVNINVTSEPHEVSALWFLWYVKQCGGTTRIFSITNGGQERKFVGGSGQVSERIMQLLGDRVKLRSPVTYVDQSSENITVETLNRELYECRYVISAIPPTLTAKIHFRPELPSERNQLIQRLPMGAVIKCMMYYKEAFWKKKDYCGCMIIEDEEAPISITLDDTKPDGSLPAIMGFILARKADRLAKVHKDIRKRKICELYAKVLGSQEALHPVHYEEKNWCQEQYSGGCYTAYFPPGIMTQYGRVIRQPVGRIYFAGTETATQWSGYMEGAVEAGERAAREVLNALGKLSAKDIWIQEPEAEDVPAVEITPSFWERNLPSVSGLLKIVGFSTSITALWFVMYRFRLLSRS
Assay: Inhibition of bovine brain mitochondria MAOA

Going from `Cc1csc(N/N=C/c2ccccc2C)n1` to `Cc1csc(N/N=C/c2ccccc2)n1`, the pKi rises from 7.45 to 8.14 (0.69 log units).

Compared with `Cc1csc(N/N=C/c2ccc(Cl)cc2Cl)n1`, `Cc1csc(N/N=C/c2ccc(Cl)cc2)n1` is 0.50 log units lower in pKi: 7.92 for the first, 7.42 for the second.

`Clc1ccc(/C=N/Nc2nc(-c3ccccc3)cs2)c(Cl)c1` and `Clc1ccc(/C=N/Nc2nc(-c3ccccc3)cs2)cc1` are within 0.2 log units of each other in pKi: 7.03 for the first, 7.00 for the second.

`COc1ccc(/C=N/Nc2nc(C)cs2)cc1` and `COc1ccc(/C=N/Nc2nc(C)cs2)cc1OC` are within 0.2 log units of each other in pKi: 7.72 for the first, 7.88 for the second.

Compared with `COc1ccc(/C=N/Nc2nc(-c3ccccc3)cs2)cc1`, `C(=N\Nc1nc(-c2ccccc2)cs1)/c1ccccc1` is 1.38 log units lower in pKi: 7.30 for the first, 5.92 for the second. The first binds more tightly here.

`COc1ccc(/C=N/Nc2nc(-c3ccccc3)cs2)cc1OC` gave a pKi of 7.52.
